Our source for the relative binding affinity (RBA) and Activity values is ChEMBL document CHEMBL1155889, “Structure-activity relationship studies on vitamin D lactam derivatives as vitamin D receptor antagonist” (Bioorg Med Chem Lett, 2008).

Experiment [1] addresses T1, Vitamin D3 receptor (Gallus gallus) (UniProt O42392).
T1 sequence (whole entry): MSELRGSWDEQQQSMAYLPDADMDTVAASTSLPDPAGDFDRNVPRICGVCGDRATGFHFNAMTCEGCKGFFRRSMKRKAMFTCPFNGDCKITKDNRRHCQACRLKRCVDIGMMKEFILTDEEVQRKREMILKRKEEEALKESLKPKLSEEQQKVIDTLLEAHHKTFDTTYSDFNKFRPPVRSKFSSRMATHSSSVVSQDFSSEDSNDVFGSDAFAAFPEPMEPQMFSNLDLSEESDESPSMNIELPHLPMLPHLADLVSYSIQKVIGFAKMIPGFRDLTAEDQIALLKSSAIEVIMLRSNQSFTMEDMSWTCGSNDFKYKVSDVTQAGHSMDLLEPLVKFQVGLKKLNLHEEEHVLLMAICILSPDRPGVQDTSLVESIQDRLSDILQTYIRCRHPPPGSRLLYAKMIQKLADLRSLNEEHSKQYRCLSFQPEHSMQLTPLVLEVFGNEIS
Kind of experiment: Displacement of [3H]1,25-(OH)2-D3 from chick intestinal VDR relative to 1,25-(OH)2-D3.

Experiment [2] concerns the target T2, Vitamin D3 receptor (Homo sapiens) (UniProt P11473).
T2 sequence (whole entry): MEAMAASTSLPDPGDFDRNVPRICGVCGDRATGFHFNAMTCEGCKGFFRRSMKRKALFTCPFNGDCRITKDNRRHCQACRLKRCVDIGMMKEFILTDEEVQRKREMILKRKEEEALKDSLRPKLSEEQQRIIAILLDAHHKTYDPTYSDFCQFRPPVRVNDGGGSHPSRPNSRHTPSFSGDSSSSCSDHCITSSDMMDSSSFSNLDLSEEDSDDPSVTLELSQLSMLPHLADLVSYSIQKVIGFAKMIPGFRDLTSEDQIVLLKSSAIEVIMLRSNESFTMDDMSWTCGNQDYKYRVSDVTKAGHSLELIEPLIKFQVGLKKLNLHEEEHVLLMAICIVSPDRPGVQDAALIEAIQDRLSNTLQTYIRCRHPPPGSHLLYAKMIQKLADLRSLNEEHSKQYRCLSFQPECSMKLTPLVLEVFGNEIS
Kind of experiment: Antagonist activity at VDR in human HL60 cells assessed as effect on 1,25-(OH)2-D3-induced cell differentiation at 3 uM by NBT assay. The format is functional, cell-based. The note with it: HL-60.

Experiment [3] concerns the target T2, Vitamin D3 receptor (Homo sapiens). The experiment is described as follows: Antagonist activity at VDR in human HL60 cells assessed as effect on 1,25-(OH)2-D3-induced cell differentiation at 1 uM by NBT assay. The format is functional, cell-based. The note with it: HL-60.
For experiment [4] the target is unchanged. The experiment is described as follows: Agonist activity at human VDR expressed in monkey COS7 cells at <10 uM by luciferase reporter gene assay. The format is functional, cell-based. The note with it: COS-7.

Each structure is given as a SMILES string. Active and inactive are the calls of the source. The calls are words filed in the database; no cut-off is given here.

Compound `C=C1/C(=C\C=C2/CCC[C@]3(C)[C@@H]([C@H](C)C[C@H]4C[C@](C)(O)C(=O)N4CCc4cc(C(F)(F)F)cc(C(F)(F)F)c4)CC[C@@H]23)C[C@@H](O)C[C@@H]1O` showed a relative binding affinity (RBA) in experiment [1] of 42. In experiment [2], the result was inactive.

In the case of `C=C1/C(=C\C=C2/CCC[C@]3(C)[C@@H]([C@H](C)C[C@H]4C[C@](C)(O)C(=O)N4CCc4cc(OC)cc(OC)c4)CC[C@@H]23)C[C@@H](O)C[C@@H]1O`, in experiment [1], the relative binding affinity (RBA) amounted to 12.

On to `C=C1/C(=C\C=C2/CCC[C@]3(C)[C@@H]([C@H](C)C[C@@H]4C[C@](C)(O)C(=O)N4CCc4cc(OC)cc(OC)c4)CC[C@@H]23)C[C@@H](O)C[C@@H]1O`, for which, in experiment [3], the outcome was inactive. In experiment [1], the relative binding affinity (RBA) is under 1520.

On to `C=C1/C(=C\C=C2/CCC[C@]3(C)[C@@H]([C@H](C)C[C@@H]4C[C@@](C)(O)C(=O)N4CCCc4cc(C(F)(F)F)cc(C(F)(F)F)c4)CC[C@@H]23)C[C@@H](O)C[C@@H]1O`, for which the result in experiment [3] was inactive. In experiment [1], this compound gave a relative binding affinity (RBA) of under 5400.

Turning to `C=C1/C(=C\C=C2/CCC[C@]3(C)[C@@H]([C@H](C)C[C@@H]4C[C@](C)(O)C(=O)N4CCCc4cc(C(F)(F)F)cc(C(F)(F)F)c4)CC[C@@H]23)C[C@@H](O)C[C@@H]1O`, in experiment [3], the result was inactive. This compound came in with a relative binding affinity (RBA) in experiment [1] of under 5400.

Turning to `C=C1/C(=C\C=C2/CCC[C@]3(C)[C@@H]([C@H](C)C[C@@H]4C[C@](C)(O)C(=O)N4CCCc4cc(OC)cc(OC)c4)CC[C@@H]23)C[C@@H](O)C[C@@H]1O`, the relative binding affinity (RBA) in experiment [1] was under 1520. In addition, the outcome in experiment [2] was inactive.

On to `C=C1/C(=C\C=C2/CCC[C@]3(C)[C@@H]([C@H](C)C[C@@H]4C[C@@](C)(O)C(=O)N4Cc4cc(OC)cc(OC)c4)CC[C@@H]23)C[C@@H](O)C[C@@H]1O`, for which, in experiment [1], the relative binding affinity (RBA) worked out at 185.

`C=C1/C(=C\C=C2/CCC[C@]3(C)[C@@H]([C@H](C)C[C@@H]4C[C@@](C)(O)C(=O)N4CCc4cc(C(F)(F)F)cc(C(F)(F)F)c4)CC[C@@H]23)C[C@@H](O)C[C@@H]1O` returned a relative binding affinity (RBA) in experiment [1] of 236. Moreover, the result in experiment [2] was inactive.

With `C=C1/C(=C\C=C2/CCC[C@]3(C)[C@@H]([C@H](C)C[C@H]4C[C@@](C)(O)C(=O)N4CCc4cc(C(F)(F)F)cc(C(F)(F)F)c4)CC[C@@H]23)C[C@@H](O)C[C@@H]1O`, in experiment [1], the relative binding affinity (RBA) came out at 1180. Also, the outcome in experiment [2] was inactive.

Turning to `C=C1/C(=C\C=C2/CCC[C@]3(C)[C@@H]([C@H](C)C[C@H]4C[C@](C)(O)C(=O)N4CCCc4cc(OC)cc(OC)c4)CC[C@@H]23)C[C@@H](O)C[C@@H]1O`, the relative binding affinity (RBA) in experiment [1] amounted to 57.

Turning to `C=C1/C(=C\C=C2/CCC[C@]3(C)[C@@H]([C@H](C)C[C@H]4C[C@@](C)(O)C(=O)N4CCCc4cc(OC)cc(OC)c4)CC[C@@H]23)C[C@@H](O)C[C@@H]1O`, in experiment [1], the relative binding affinity (RBA) is under 1520. In experiment [2], the result was inactive.

Turning to `C=C1/C(=C\C=C2/CCC[C@]3(C)[C@@H]([C@H](C)C[C@H]4C[C@@](C)(O)C(=O)N4CCCc4cc(C(F)(F)F)cc(C(F)(F)F)c4)CC[C@@H]23)C[C@@H](O)C[C@@H]1O`, the result in experiment [3] was inactive. The relative binding affinity (RBA) in experiment [1] was under 5400.

`C=C1/C(=C\C=C2/CCC[C@]3(C)[C@@H]([C@H](C)C[C@H]4C[C@](C)(O)C(=O)N4Cc4cc(OCCC)cc(OCCC)c4)CC[C@@H]23)C[C@@H](O)C[C@@H]1O`: in experiment [1], the relative binding affinity (RBA) came to 11.9.

As for `C=C1/C(=C\C=C2/CCC[C@]3(C)[C@@H]([C@H](C)C[C@H]4C[C@](C)(O)C(=O)N4Cc4cc(OCC)cc(OCC)c4)CC[C@@H]23)C[C@@H](O)C[C@@H]1O`, the relative binding affinity (RBA) in experiment [1] came to 3.5.

On to `C=C1/C(=C\C=C2/CCC[C@]3(C)[C@@H]([C@H](C)C[C@H]4C[C@](C)(O)C(=O)N4CCCc4cc(C(F)(F)F)cc(C(F)(F)F)c4)CC[C@@H]23)C[C@@H](O)C[C@@H]1O`, for which, in experiment [3], the outcome was inactive. The compound further registered a relative binding affinity (RBA) in experiment [1] of 181.

In experiment [1], `C=C1/C(=C\C=C2/CCC[C@]3(C)[C@@H]([C@H](C)C[C@@H]4C[C@](C)(O)C(=O)N4Cc4cc(C(F)(F)F)cc(C(F)(F)F)c4)CC[C@@H]23)C[C@@H](O)C[C@@H]1O` came in with a relative binding affinity (RBA) of under 1520. The outcome in experiment [2] was inactive.

For `C=C1/C(=C\C=C2/CCC[C@]3(C)[C@@H]([C@H](C)C[C@H]4C[C@](C)(O)C(=O)N4Cc4ccccc4)CC[C@@H]23)C[C@@H](O)C[C@@H]1O`, in experiment [1], the relative binding affinity (RBA) came to 36.4.

`C=C1/C(=C\C=C2/CCC[C@]3(C)[C@@H]([C@H](C)C[C@@H]4C[C@@](C)(O)C(=O)N4CCc4cc(OC)cc(OC)c4)CC[C@@H]23)C[C@@H](O)C[C@@H]1O`: the result in experiment [3] was inactive. The compound further showed a relative binding affinity (RBA) in experiment [1] of 284.

`C=C1/C(=C\C=C2/CCC[C@]3(C)[C@@H]([C@H](C)C[C@@H]4C[C@@](C)(O)C(=O)N4CCCc4cc(OC)cc(OC)c4)CC[C@@H]23)C[C@@H](O)C[C@@H]1O` came in with a relative binding affinity (RBA) in experiment [1] of under 1520. The outcome in experiment [2] was inactive.

The compound `C=C1/C(=C\C=C2/CCC[C@]3(C)[C@@H]([C@H](C)C[C@H]4C[C@](C)(O)C(=O)N4Cc4cc(C(F)(F)F)cc(C(F)(F)F)c4)CC[C@@H]23)C[C@@H](O)C[C@@H]1O` gave a relative binding affinity (RBA) in experiment [1] of 138. Besides, the result in experiment [2] was inactive.

`C=C1/C(=C\C=C2/CCC[C@]3(C)[C@@H]([C@H](C)C[C@@H]4C[C@@](C)(O)C(=O)N4Cc4cc(C(F)(F)F)cc(C(F)(F)F)c4)CC[C@@H]23)C[C@@H](O)C[C@@H]1O` yielded a relative binding affinity (RBA) in experiment [1] of under 1520. For the same compound, in experiment [2], the outcome was inactive.

For the compound `C=C1/C(=C\C=C2/CCC[C@]3(C)[C@@H]([C@H](C)C[C@H]4C[C@](C)(O)C(=O)N4Cc4cc(O)cc(O)c4)CC[C@@H]23)C[C@@H](O)C[C@@H]1O`, the result in experiment [4] and in experiment [3] was inactive. This compound showed a relative binding affinity (RBA) in experiment [1] of 9.6.

As to `C=C1/C(=C\C=C2/CCC[C@]3(C)[C@@H]([C@H](C)C[C@H]4C[C@](C)(O)C(=O)N4CCc4ccccc4)CC[C@@H]23)C[C@@H](O)C[C@@H]1O`, in experiment [1], the relative binding affinity (RBA) is 12.5.

`C=C1/C(=C\C=C2/CCC[C@]3(C)[C@@H]([C@H](C)C[C@@H]4C[C@](C)(O)C(=O)N4Cc4cc(OC)cc(OC)c4)CC[C@@H]23)C[C@@H](O)C[C@@H]1O` yielded a relative binding affinity (RBA) in experiment [1] of 60.

On to `C=C1/C(=C\C=C2/CCC[C@]3(C)[C@@H]([C@H](C)C[C@@H]4C[C@](C)(O)C(=O)N4CCc4cc(C(F)(F)F)cc(C(F)(F)F)c4)CC[C@@H]23)C[C@@H](O)C[C@@H]1O`, for which, in experiment [1], the relative binding affinity (RBA) came out at 757. Further, the result in experiment [2] was inactive.

For `C=C1/C(=C\C=C2/CCC[C@]3(C)[C@@H]([C@H](C)C[C@H]4C[C@@](C)(O)C(=O)N4Cc4cc(C(F)(F)F)cc(C(F)(F)F)c4)CC[C@@H]23)C[C@@H](O)C[C@@H]1O`, the relative binding affinity (RBA) in experiment [1] is under 1520. Further, the result in experiment [2] was inactive.

As for `C=C1/C(=C\C=C2/CCC[C@]3(C)[C@@H]([C@H](C)C[C@H]4C[C@](C)(O)C(=O)N4Cc4cc(OC)cc(OC)c4)CC[C@@H]23)C[C@@H](O)C[C@@H]1O`, in experiment [1], the relative binding affinity (RBA) worked out at 1.9.

Turning to `C=C1/C(=C\C=C2/CCC[C@]3(C)[C@@H]([C@H](C)C[C@H]4C[C@@](C)(O)C(=O)N4CCc4cc(OC)cc(OC)c4)CC[C@@H]23)C[C@@H](O)C[C@@H]1O`, the outcome in experiment [3] was inactive. Moreover, the relative binding affinity (RBA) in experiment [1] was under 1520.

Take `C=C1/C(=C\C=C2/CCC[C@]3(C)[C@@H]([C@H](C)C[C@H]4C[C@@](C)(O)C(=O)N4Cc4cc(OC)cc(OC)c4)CC[C@@H]23)C[C@@H](O)C[C@@H]1O`: the relative binding affinity (RBA) in experiment [1] is 131.

For `C=C1/C(=C\C=C2/CCC[C@]3(C)[C@@H]([C@H](C)C[C@H]4C[C@](C)(O)C(=O)N4Cc4cc(OCCCC)cc(OCCCC)c4)CC[C@@H]23)C[C@@H](O)C[C@@H]1O`, the relative binding affinity (RBA) in experiment [1] is 18.2.
